Measurements: ChEMBL document CHEMBL1150488 (1993)
In brackets after ≈: the same amount, converted by molar mass.

Tested on: Bacteroides fragilis
Assay: Tested for zone of inhibition against Bacteroides fragilis UC6513 (1 mg/mL, 80 microL/12.7 mm)
Assay type: functional

In order of rising Diameter of inhibition zone:
1. CCCCCC(=O)N1C/C(=C(/C)COC2CCCCO2)C1=O (configuration not stated)  0 mm
2. CCCCCC(=O)N1C/C(=C(\C)Cn2nnc(C(=O)OC)c2C(=O)OC)C1=O  17 mm
3. CC(=O)OC[C@H](C)[C@H]1CN(C(C)=O)C1=O  20 mm
4. CCCC(=O)OC/C(C)=C1/CN(C(=O)CCC)C1=O  21 mm
5. CCCC(=O)OC[C@@H](C)[C@H]1CN(C(=O)c2ccccc2)C1=O  24 mm
6. CCCC(=O)OC/C(C)=C1\CN(C(=O)CCC)C1=O  25 mm
7. CC(=O)OC/C(C)=C1/CN(C(C)=O)C1=O  29 mm
8. CCCCCC(=O)N1C/C(=C(\C)COC(C)=O)C1=O  30 mm
9. CCCC(=O)N1C/C(=C(/C)COC(C)=O)C1=O  31 mm
10. CCCC(=O)N1C[C@H]([C@@H](C)COC(C)=O)C1=O  36 mm
11. CCCCOC(=O)N1C[C@H]([C@H](C)CNC(C)=O)C1=O  36 mm
12. CCCCCC(=O)N1C[C@H]([C@H](C)Cn2nnc(C(=O)OC)c2C(=O)OC)C1=O  65 mm
13. CCCCCC(=O)N1C/C(=C(\C)CF)C1=O  88 mm

Tested on: Clostridium perfringens
Assay: Tested for zone of inhibition against Clostridium perfringens UC6509
Assay type: functional

In order of falling Diameter of inhibition zone:
1. CCCCCC(=O)N1C/C(=C(\C)CF)C1=O  78 mm
2. CCCCOC(=O)N1C[C@H]([C@H](C)CNC(C)=O)C1=O  19 mm
3. CC(=O)OC/C(C)=C1/CN(C(C)=O)C1=O  0 mm
4. CC(=O)OC[C@H](C)[C@H]1CN(C(C)=O)C1=O  0 mm
5. CCCC(=O)OC/C(C)=C1/CN(C(=O)CCC)C1=O  0 mm
6. CCCCCC(=O)N1C/C(=C(\C)COC(C)=O)C1=O  0 mm
7. CCCCCC(=O)N1C/C(=C(\C)Cn2nnc(C(=O)OC)c2C(=O)OC)C1=O  0 mm
8. CCCC(=O)N1C[C@H]([C@@H](C)COC(C)=O)C1=O  0 mm

Tested on: Clostridium perfringens
Assay: The compound (1 mg/mL, 80 microL/12.7 mm) was tested for zone of inhibition against Clostridium perfringens UC6509 (33H -, H: Hazy zone)
Assay type: functional

`CCCC(=O)OC[C@@H](C)[C@H]1CN(C(=O)c2ccccc2)C1=O` showed a Diameter of inhibition zone of 33 mm.

Tested on: Clostridium perfringens
Assay: The compound (1 mg/mL, 80 microL/12.7 mm) was tested for zone of inhibition against Clostridium perfringens UC6509
Assay type: functional

In the case of `CCCC(=O)OC/C(C)=C1\CN(C(=O)CCC)C1=O`, the Diameter of inhibition zone is reported as 30 mm.

Tested on: Escherichia coli
Assay: Tested in vitro for its antibacterial activity against Escherichia coli UC9379
Assay type: functional

`CO[C@@]1(NC(=O)C(C(=O)O)c2ccc(O)cc2)C(=O)N2C(C(=O)O)=C(CSc3nnnn3C)CO[C@@H]21` (some centres not stated) [MOXALACTAM] showed an MIC of 0.06 µg/mL (≈ 0.115 µM).

Tested on: Streptococcus pyogenes
Assay: Tsted in vitro for its antibacterial activity against Streptococcus pyogenes UC152
Assay type: functional

Work on `CO[C@@]1(NC(=O)C(C(=O)O)c2ccc(O)cc2)C(=O)N2C(C(=O)O)=C(CSc3nnnn3C)CO[C@@H]21` (some centres not stated) [MOXALACTAM] yielded an MIC of 0.5 µg/mL (≈ 0.961 µM).

Tested on: Staphylococcus aureus
Assay: Tested for zone of inhibition against Staphylococcus aureus UC3665 (1 mg/mL, 80 microL/12.7 mm)
Assay type: functional

In order of falling Diameter of inhibition zone:
1. CCCCCC(=O)N1C/C(=C(\C)CF)C1=O  36 mm
2. CCCCCC(=O)N1C[C@H]([C@H](C)COC(C)=O)C1=O  36 mm
3. CCCCCC(=O)N1C/C(=C(\C)COC(C)=O)C1=O  19 mm
4. CC(=O)OC/C(C)=C1/CN(C(C)=O)C1=O  0 mm
5. CC(=O)OC[C@H](C)[C@H]1CN(C(C)=O)C1=O  0 mm
6. CCCC(=O)OC/C(C)=C1/CN(C(=O)CCC)C1=O  0 mm
7. CCCC(=O)OC/C(C)=C1\CN(C(=O)CCC)C1=O  0 mm
8. CCCC(=O)N1C/C(=C(/C)COC(C)=O)C1=O  0 mm
9. CCCCCC(=O)N1C/C(=C(/C)COC2CCCCO2)C1=O (configuration not stated)  0 mm
10. CCCCCC(=O)N1C[C@H]([C@H](C)Cn2nnc(C(=O)OC)c2C(=O)OC)C1=O  0 mm
11. CCCCCC(=O)N1C/C(=C(\C)Cn2nnc(C(=O)OC)c2C(=O)OC)C1=O  0 mm
12. CCCC(=O)N1C[C@H]([C@@H](C)COC(C)=O)C1=O  0 mm
13. CCCCOC(=O)N1C[C@H]([C@H](C)CNC(C)=O)C1=O  0 mm

Tested on: Staphylococcus aureus
Assay: The compound (1 mg/mL, 80 microL/12.7 mm) was tested for zone of inhibition against Staphylococcus aureus UC3665 (18H -, H: Hazy zone)
Assay type: functional

Work on `CCCC(=O)OC[C@@H](C)[C@H]1CN(C(=O)c2ccccc2)C1=O` yielded a Diameter of inhibition zone of 18 mm.

Tested on: Staphylococcus aureus
Assay: Tested for zone of inhibition against Staphylococcus aureus UC6685 (1 mg/mL, 80 microL/6.5 mm)
Assay type: functional

In order of falling Diameter of inhibition zone:
1. CCCCCC(=O)N1C/C(=C(\C)CF)C1=O  39 mm
2. CCCCCC(=O)N1C/C(=C(\C)COC(C)=O)C1=O  12 mm
3. CCCCCC(=O)N1C[C@H]([C@H](C)COC(C)=O)C1=O  9 mm
4. CC(=O)OC/C(C)=C1/CN(C(C)=O)C1=O  0 mm
5. CC(=O)OC[C@H](C)[C@H]1CN(C(C)=O)C1=O  0 mm
6. CCCC(=O)OC/C(C)=C1/CN(C(=O)CCC)C1=O  0 mm
7. CCCC(=O)OC[C@@H](C)[C@H]1CN(C(=O)c2ccccc2)C1=O  0 mm
8. CCCC(=O)OC/C(C)=C1\CN(C(=O)CCC)C1=O  0 mm
9. CCCC(=O)N1C/C(=C(/C)COC(C)=O)C1=O  0 mm
10. CCCCCC(=O)N1C/C(=C(/C)COC2CCCCO2)C1=O (configuration not stated)  0 mm
11. CCCCCC(=O)N1C[C@H]([C@H](C)Cn2nnc(C(=O)OC)c2C(=O)OC)C1=O  0 mm
12. CCCC(=O)N1C[C@H]([C@@H](C)COC(C)=O)C1=O  0 mm
13. CCCCOC(=O)N1C[C@H]([C@H](C)CNC(C)=O)C1=O  0 mm

Tested on: Staphylococcus aureus
Assay: The compound (1 mg/mL, 80 microL/6.5 mm) was tested for zone of inhibition against Staphylococcus aureus UC6685; Tr = trace
Assay type: functional, organism-based

With `CCCCCC(=O)N1C/C(=C(\C)Cn2nnc(C(=O)OC)c2C(=O)OC)C1=O` the “Diameter of inhibition zone” value was “Trace”.

Tested on: Staphylococcus epidermidis
Assay: Tested for zone of inhibition against Staphylococcus epidermidis UC719 (1 mg/mL, 80 microL/6.5 mm)
Assay type: functional

In order of falling Diameter of inhibition zone:
1. CCCCCC(=O)N1C/C(=C(\C)CF)C1=O  31 mm
2. CCCCCC(=O)N1C[C@H]([C@H](C)COC(C)=O)C1=O  23 mm
3. CCCCCC(=O)N1C/C(=C(\C)COC(C)=O)C1=O  7 mm
4. CC(=O)OC/C(C)=C1/CN(C(C)=O)C1=O  0 mm
5. CC(=O)OC[C@H](C)[C@H]1CN(C(C)=O)C1=O  0 mm
6. CCCC(=O)OC/C(C)=C1/CN(C(=O)CCC)C1=O  0 mm
7. CCCC(=O)OC[C@@H](C)[C@H]1CN(C(=O)c2ccccc2)C1=O  0 mm
8. CCCC(=O)OC/C(C)=C1\CN(C(=O)CCC)C1=O  0 mm
9. CCCC(=O)N1C/C(=C(/C)COC(C)=O)C1=O  0 mm
10. CCCCCC(=O)N1C[C@H]([C@H](C)Cn2nnc(C(=O)OC)c2C(=O)OC)C1=O  0 mm
11. CCCCCC(=O)N1C/C(=C(\C)Cn2nnc(C(=O)OC)c2C(=O)OC)C1=O  0 mm
12. CCCC(=O)N1C[C@H]([C@@H](C)COC(C)=O)C1=O  0 mm
13. CCCCOC(=O)N1C[C@H]([C@H](C)CNC(C)=O)C1=O  0 mm

In the case of `CCCCCC(=O)N1C/C(=C(/C)COC2CCCCO2)C1=O` (configuration not stated), the “Diameter of inhibition zone” value is reported as 0 diameter mm.
